Measurements: ChEMBL document CHEMBL5725325, “Combination of kinase inhibitors and uses thereof” (2017)

How the values were obtained:
[1] = (§1) PI 3-Kinase HTRF Assay: Briefly, the assay is a time resolved FRET assay that indirectly measures PIP3 product formed by the activity of a PI3-K. The kinase reaction is performed in a microtitre plate (e.g., a 384 well microtitre plate). The total reaction volume is approximately 20 ul per well. In the first step, each well receives 2 ul of test compound in 20% dimethylsulphoxide resulting in a 2% DMSO final concentration. Next, approximately 14.5 ul of a kinase/PIP2 mixture (diluted in 1x reaction buffer) is added per well for a final concentration of 0.25-0.3 ug/ml kinase and 10 uM PIP2. The plate is sealed and incubated for 15 minutes at room temperature. To start the reaction, 3.5 ul of ATP (diluted in 1x reaction buffer) is added per well for a final concentration of 10 uM ATP. The plate is sealed and incubated for 1 hour at room temperature. The reaction is stopped by adding 5 ul of Stop Solution per well and then 5 ul of Detection Mix is added per well. The plate is sealed, incubated for 1 hour at room temperature, and then read on an appropriate plate reader.
[2] = target: Phosphatidylinositol 3-kinase regulatory subunit beta (Homo sapiens, UniProt O00459); experiment: as §1
Chain of Phosphatidylinositol 3-kinase regulatory subunit beta (O00459 whole entry, canonical isoform): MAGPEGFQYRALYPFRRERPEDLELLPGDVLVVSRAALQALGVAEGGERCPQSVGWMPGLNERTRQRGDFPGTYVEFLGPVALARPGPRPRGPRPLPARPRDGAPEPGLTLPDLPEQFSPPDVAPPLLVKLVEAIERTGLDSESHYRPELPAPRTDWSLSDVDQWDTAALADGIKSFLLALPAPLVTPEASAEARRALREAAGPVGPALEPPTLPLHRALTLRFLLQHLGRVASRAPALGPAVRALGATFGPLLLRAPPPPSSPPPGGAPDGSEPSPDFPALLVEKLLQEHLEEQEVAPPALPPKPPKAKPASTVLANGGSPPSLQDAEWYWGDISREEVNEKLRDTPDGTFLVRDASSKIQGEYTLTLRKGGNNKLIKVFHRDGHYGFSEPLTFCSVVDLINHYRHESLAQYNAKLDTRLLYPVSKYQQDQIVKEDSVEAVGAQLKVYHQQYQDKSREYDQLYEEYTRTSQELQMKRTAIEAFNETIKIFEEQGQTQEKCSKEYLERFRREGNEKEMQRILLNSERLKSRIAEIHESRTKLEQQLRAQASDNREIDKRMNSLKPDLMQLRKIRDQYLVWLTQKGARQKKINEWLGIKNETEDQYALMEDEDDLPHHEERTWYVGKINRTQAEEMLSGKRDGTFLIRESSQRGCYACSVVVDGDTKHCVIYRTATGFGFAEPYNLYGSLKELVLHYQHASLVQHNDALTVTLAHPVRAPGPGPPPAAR

[3] = target: Phosphatidylinositol 4,5-bisphosphate 3-kinase catalytic subunit gamma isoform (Homo sapiens, UniProt P48736); experiment: as §1
Chain of Phosphatidylinositol 4,5-bisphosphate 3-kinase catalytic subunit gamma isoform (P48736 whole entry, canonical isoform): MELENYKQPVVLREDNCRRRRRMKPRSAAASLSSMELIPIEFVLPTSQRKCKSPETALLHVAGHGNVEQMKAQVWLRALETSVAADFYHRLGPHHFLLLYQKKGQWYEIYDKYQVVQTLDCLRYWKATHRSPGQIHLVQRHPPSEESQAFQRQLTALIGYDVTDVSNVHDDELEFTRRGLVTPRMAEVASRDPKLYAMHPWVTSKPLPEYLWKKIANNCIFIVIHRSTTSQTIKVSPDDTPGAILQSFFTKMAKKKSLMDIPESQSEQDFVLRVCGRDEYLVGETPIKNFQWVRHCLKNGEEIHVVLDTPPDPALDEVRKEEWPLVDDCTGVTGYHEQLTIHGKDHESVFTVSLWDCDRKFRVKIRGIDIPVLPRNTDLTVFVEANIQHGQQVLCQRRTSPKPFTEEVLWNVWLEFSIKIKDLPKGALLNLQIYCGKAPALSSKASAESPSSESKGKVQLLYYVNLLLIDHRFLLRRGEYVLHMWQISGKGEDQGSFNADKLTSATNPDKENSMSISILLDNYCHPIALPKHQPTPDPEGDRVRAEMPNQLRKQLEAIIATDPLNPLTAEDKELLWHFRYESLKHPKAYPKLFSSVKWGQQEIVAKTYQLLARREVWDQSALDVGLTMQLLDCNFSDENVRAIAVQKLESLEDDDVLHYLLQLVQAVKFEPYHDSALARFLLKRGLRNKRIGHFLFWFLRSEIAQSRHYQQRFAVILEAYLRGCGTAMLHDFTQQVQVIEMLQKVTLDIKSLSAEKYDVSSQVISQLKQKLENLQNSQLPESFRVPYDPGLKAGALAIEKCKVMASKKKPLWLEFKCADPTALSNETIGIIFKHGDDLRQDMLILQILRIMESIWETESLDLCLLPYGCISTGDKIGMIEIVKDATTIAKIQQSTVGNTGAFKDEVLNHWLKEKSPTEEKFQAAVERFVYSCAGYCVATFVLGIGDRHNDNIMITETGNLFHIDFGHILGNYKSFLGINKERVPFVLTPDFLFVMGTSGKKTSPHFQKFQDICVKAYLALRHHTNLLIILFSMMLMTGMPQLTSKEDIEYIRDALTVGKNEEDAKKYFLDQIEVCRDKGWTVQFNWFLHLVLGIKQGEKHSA

[4] = target: T1, Phosphatidylinositol 4,5-bisphosphate 3-kinase catalytic subunit delta isoform (Homo sapiens, UniProt O00329); experiment: as §1
T1 sequence (O00329 whole entry): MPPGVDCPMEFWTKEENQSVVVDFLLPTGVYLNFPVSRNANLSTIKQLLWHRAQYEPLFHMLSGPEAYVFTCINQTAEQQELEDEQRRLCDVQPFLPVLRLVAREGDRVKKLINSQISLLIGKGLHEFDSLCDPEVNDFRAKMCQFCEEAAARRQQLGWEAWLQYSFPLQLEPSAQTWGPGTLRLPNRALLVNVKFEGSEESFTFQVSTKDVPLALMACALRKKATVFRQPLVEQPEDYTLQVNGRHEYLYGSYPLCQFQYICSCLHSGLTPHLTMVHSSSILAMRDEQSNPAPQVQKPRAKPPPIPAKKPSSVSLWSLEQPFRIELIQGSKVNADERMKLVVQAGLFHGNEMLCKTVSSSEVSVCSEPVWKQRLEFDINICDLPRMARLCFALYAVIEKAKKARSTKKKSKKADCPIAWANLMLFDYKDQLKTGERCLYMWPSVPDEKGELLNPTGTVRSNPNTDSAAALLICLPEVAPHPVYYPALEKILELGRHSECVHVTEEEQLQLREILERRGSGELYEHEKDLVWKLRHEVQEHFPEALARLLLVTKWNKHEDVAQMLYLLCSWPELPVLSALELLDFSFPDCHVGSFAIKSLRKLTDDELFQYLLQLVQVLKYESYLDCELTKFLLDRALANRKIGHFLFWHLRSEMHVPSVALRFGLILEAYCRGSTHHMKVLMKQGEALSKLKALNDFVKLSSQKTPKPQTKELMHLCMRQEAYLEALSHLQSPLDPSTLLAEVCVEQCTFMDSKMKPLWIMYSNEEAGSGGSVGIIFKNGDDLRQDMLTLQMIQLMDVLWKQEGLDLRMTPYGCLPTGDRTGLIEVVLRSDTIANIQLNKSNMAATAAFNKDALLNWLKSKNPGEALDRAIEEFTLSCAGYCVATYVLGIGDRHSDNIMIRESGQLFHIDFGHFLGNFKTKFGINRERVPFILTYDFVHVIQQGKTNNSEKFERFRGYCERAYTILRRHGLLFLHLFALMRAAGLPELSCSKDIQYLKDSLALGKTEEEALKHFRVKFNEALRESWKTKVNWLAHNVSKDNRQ

| IC50 [1] [nM] | IC50 [2] [nM] | SMILES | IC50 [3] [nM] | further results |
| --- | --- | --- | --- | --- |
| < 100 | < 100 | Nc1nc2cc(-c3ccc4ncc(N5CCN(C(=O)C6CCCN6)CC5)nc4c3)ccc2o1 (stereo not drawn) |  |  |
|  |  | Nc1nc2cc(-c3ccc4ncc(C(=O)N5CCC(N6CCC(F)(F)C6)C5)n4c3)ccc2o1 (stereo not drawn) | < 10000 | IC50 [4]: < 10000 nM |
|  |  | Nc1nc2cc(-c3ccc4ncn(-c5ccccc5)c4c3)ccc2o1 | < 1000 |  |
|  | < 10000 | CC(C)(N)C(=O)N1CCN(c2cnc3ccc(-c4ccc5oc(N)nc5c4)nc3n2)CC1 |  |  |
| < 100 |  | C[C@@H]1COCCN1C1CN(c2cnc3ccc(-c4ccc5oc(N)nc5c4)nc3n2)C1 |  |  |
|  | < 100 | C[C@@H](N)C(=O)N1CCN(c2cnc3ccc(-c4ccc5oc(N)nc5c4)nc3n2)CC1 |  |  |
